In patent publication US20170131285A1, “METHODS AND COMPOSITIONS FOR DIAGNOSING, MONITORING AND TREATING CANCER” (INSERM (Institut National de la Sante et de la Recherche …, priority 2014, published 2017):
Where no end group is shown, it is not given here.

Tests used:
primary MDSC cells = assay: Activation of primary MDSC by exosomes (pSTAT3, IL-6, IL-10, IFNγ in T cell co-culture); format: cell-based; settings: primary MDSC from mouse spleen, exosomes from B16F10, A8 16 μM
Description: FIG. 8: A8 blocks the activation of primary MDSC cells. A) A representative image of a western blot showing the kinetics of STAT3 phosphorylation in MDSC cells incubated or not with exosomes isolated from B16F10 cells together with a peptide control (MDSC/TDE) or A8 (MDSC/TDE/A8). B-C) IL-6 (B) and IL-10 (C) concentration was determined by ELISA in the supernatant of MDSC cells incubated or not for 24 h with exosomes (from B16F10) in the absence or presence of A8 (16 μM). D) IFNγ concentration was determined by ELISA in the supernatant of co-cultured MDSC and T lymphocytes incubated or not for 5 days with exosomes (from B16F10) in the absence or presence of A8 ([…]). **, p<0.01; *, p<0.1 (n=3).
(§1) MSC2 (2·10^6) or MDSC (2·10^6) were incubated alone or with exosomes (from B16F10, CT26, HCT116, SW480) in the absence or presence of A8 or A17 (16 μM) during 6 hours (RPMI 10% FBS, 5% of CO2 at 37° C.). Every 2 hours, […] cells were sampled and centrifugated 5 min at 300 g. Cells were lysed in lysis buffer (50 mM HEPES (pH 7.6), 150 mM NaCl, 5 mM EDTA, and 0.1% NP40 and anti-phosphatases, Roche). Then, pSTAT3 and STAT3 expression were analyzed by western blotting.
Single-cell suspensions were prepared from spleens, and red cells were removed using ammonium chloride lysis buffer. […] All events were acquired by a BD Bioscience LSR-II device and analyzed with FlowJo (Tree Star). […]

[1] = Toxicity observed in treated animals; format: in vivo; settings: applicant's studies and bio-distribution studies
HSP70/TLR2 association = target: T1, HSP70/TLR2 association (Homo sapiens, UniProt P0DMV8); assay: In vitro co-immunoprecipitation of TLR2 followed by HSP70 immunoblotting; format: binding; settings: A8 from 0.3 μM to 1.8 μM, HSP70 immunoblot
T1 construct: HA; made in house; host or cells: cell-free: TNT Quick Coupled Transcription/Translation System (Promega)
Description: FIG. 3: A8 blocks HSP70/TLR2 association. (A) Immunoprecipitation of TLR2 in the presence of increasing concentrations of A8 (from 0.3 μM to 1.8 μM) was followed by HSP70 immunoblotting. IP control, no relevant IgG antibody. (B) Denatured luciferase (D) was incubated in the absence or presence of human HSP70 and, when indicated, increasing concentrations of A8 (C1=5 μM; C2=15 μM; C3=25 μM and C4=50 μM) for 1 hour at 25° C. Following incubation, the luciferase substrate D-luciferin was added and within 10 minutes the total light units emitted were collected for 10 seconds at 560 nm using a Wallac (Victor 3) spectrophotometer. *, p<0.05. (C) Biolayer interferometry to determine association and dissociation curves of HSP70 (concentration range from 2.5 μM to 156 nM) with biotinylated TRL2 immobilized on streptavidin sensor tips. (D) Association and dissociation curves of HSP70 (concentration range from 50 nM to 1.28 nM) with biotinylated A8 immobilized on streptavidin sensor tips. Curves in C and D represent mean values of triplicate measurements for each concentration.
For the in vitro coimmunoprecipitation, we used A8 or TLR2 recombinants proteins. […] The immunoprecipitated proteins were analysed by western blot.
For the in vitro co-immunoprecipitation, we used A8 or TLR2 recombinants proteins. […] The immunoprecipitated proteins were analyzed by western blot.

MSC2 cells = assay: pSTAT3 western blot in MSC2 cells incubated with tumor-derived exosomes; format: cell-based
Description: FIG. 4: A8 blocks the activation and proliferation of MSC2 cells. (A) IL-6 concentration was determined by ELISA in the supernatant of MSC2 cells incubated or not for 24 h with exosomes (from B16F10) in the presence or absence of A8. *, p<0.05, (n=3). (B) A representative image of a western blot showing the kinetics of STAT3 phosphorylation in MCS2 cells incubated or not with exosomes isolated from B16F10, CT26 or HCT116 cells together with a peptide control (TDE) or A8 (TDE/A8). 14-3-3 is used as a loading control. In the right panels, the amount of pSTAT3 was quantified by densitometric analysis. *, p<0.05, n=4.
Five millions of MSC2 cells were incubated with or without exosomes isolated from B16F10, CT26, HCT116 or SW480 cells in the presence or absence of A8 during 4 h or 6 h. Cells were isolated, lysed and analysed for pSTAT3 by western blotting.
as §1

T1 sequence (P0DMV8 whole entry): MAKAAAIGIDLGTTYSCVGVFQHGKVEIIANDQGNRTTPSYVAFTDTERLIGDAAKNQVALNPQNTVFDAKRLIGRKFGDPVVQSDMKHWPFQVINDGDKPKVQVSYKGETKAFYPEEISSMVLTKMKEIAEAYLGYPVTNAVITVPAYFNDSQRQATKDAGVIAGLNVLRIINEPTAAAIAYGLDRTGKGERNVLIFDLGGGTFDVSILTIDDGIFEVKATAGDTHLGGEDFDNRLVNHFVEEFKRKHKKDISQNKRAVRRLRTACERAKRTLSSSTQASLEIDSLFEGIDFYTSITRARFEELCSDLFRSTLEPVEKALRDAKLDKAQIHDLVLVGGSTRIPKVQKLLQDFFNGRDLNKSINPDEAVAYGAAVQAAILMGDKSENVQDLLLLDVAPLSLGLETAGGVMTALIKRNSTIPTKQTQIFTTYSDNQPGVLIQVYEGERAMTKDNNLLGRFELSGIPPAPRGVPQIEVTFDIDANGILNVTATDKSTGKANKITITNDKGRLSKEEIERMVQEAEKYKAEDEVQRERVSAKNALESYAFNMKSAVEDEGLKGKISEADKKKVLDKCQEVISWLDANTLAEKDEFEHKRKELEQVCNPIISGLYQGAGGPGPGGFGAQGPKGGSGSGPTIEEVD

SPWPRPTY [Aptamer A8, SPWPRPTY]
MDSC activation markers (IL6 release, STAT-3 phosphorylation, IL10 release, IFNgamma release by T cells) (primary MDSC cells): blocks all MDSC activation markers | toxicity in the animals, notably cardiac or hepatic [1]: neither our studies nor those done for the bio-distribution of A8 indicate any evident toxicity | HSP70 association to TLR2 (HSP70/TLR2 association): inhibited by A8 in a dose-dependent manner | STAT3 phosphorylation (activation) in MSC2 induced by tumor-derived exosomes (MSC2 cells; exosomes from CT26, B16F10, HCT116, SW480, 4 h and 6 h, aptamer 16 μM): inhibited the ability of tumor-derived exosomes to activate STAT3 | MDSC activation (STAT3 phosphorylation in MSC2) in the absence of tumor-derived exosomes (MSC2 cells; no exosomes): does not have a direct effect in MDSC activation
